Measured values reported in ChEMBL document CHEMBL4627312, “Anilinopyrazines as potential mitochondrial uncouplers” (Bioorg Med Chem Lett, 2020).
pEC50: −log10 of the molar value. Active and inactive are the calls of the source. The calls are words filed in the database; no cut-off is given here.

Experiments:
[1] = test system: L6; assay: Induction of mitochondrial uncoupling in rat L6 cells assessed as oxygen consumption rate at 0.01 to 50 uM measured after 45 to 90 mins by seahorse XFe96 analyser based assay; details: Mitochondria
[2] = test system: L6; assay: Induction of mitochondrial uncoupling in rat L6 cells assessed as oxygen consumption rate measured after 45 to 90 mins by seahorse XFe96 analyser based assay relative to control; details: Mitochondria
[3] = Induction of mitochondrial uncoupling in rat L6 cells assessed as oxygen consumption rate measured after 45 to 90 mins by seahorse XFe96 analyser based assay; format: mitochondria, Mitochondria

Row | Compound | Activity [1] | Emax [2] [%] | pEC50 [3]
1 | Fc1ccc(Nc2nccnc2Nc2ccc(F)cc2F)c(F)c1 | inactive | 109 | –
2 | FC(F)(F)Oc1ccc(Nc2cncc(Nc3ccc(OC(F)(F)F)cc3)n2)cc1 | inactive | 107 | –
3 | Fc1cc(C(F)(F)F)ccc1Nc1nccnc1Nc1ccc(C(F)(F)F)cc1F | – | 164 | 5.07
4 | Fc1ccc(C(F)(F)F)cc1Nc1nccnc1Nc1cc(C(F)(F)F)ccc1F | – | 100 | –
5 | FC(F)(F)c1ccc(Nc2nccnc2Nc2ccc(C(F)(F)F)cc2)cc1 | – | 260 | 5.60
6 | Fc1cccc(Nc2nccnc2Nc2cccc(F)c2F)c1F | inactive | 108 | –
7 | FC(F)(F)c1ccccc1Nc1nccnc1Nc1ccccc1C(F)(F)F | – | 104 | –
8 | FC(F)(F)Oc1ccccc1Nc1nccnc1Nc1ccccc1OC(F)(F)F | inactive | 114 | –
9 | FC(F)(F)Oc1ccc(Nc2cnc(Nc3ccc(OC(F)(F)F)cc3)cn2)cc1 | inactive | 102 | –
10 | FC(F)(F)c1ccc(Nc2cncc(Nc3ccc(C(F)(F)F)cc3)n2)cc1 | inactive | 103 | –
11 | FC(F)(F)c1cc(Nc2nccnc2Nc2cc(C(F)(F)F)cc(C(F)(F)F)c2)cc(C(F)(F)F)c1 | – | 148 | 4.77
12 | FC(F)(F)c1cc(Nc2cncc(Nc3cc(C(F)(F)F)cc(C(F)(F)F)c3)n2)cc(C(F)(F)F)c1 | inactive | 105 | –
13 | FC(F)(F)Oc1ccc(Nc2nccnc2Nc2ccc(OC(F)(F)F)cc2)cc1 | – | 258 | 5.23
14 | Fc1ccc(Nc2nccnc2Nc2ccc(F)cc2)cc1 | inactive | 101 | –
15 | FC(F)(F)c1ccc(Nc2cnc(Nc3ccc(C(F)(F)F)cc3)cn2)cc1 | inactive | 107 | –

Next, values leading:

Row | Activity [1] | Emax [2] [%] | pEC50 [3] | Compound
16 | – | 181 | 5.52 | FC(F)(F)c1cccc(Nc2nccnc2Nc2cccc(C(F)(F)F)c2)c1
17 | inactive | 105 | – | FC(F)(F)Oc1cccc(Nc2cncc(Nc3cccc(OC(F)(F)F)c3)n2)c1
18 | inactive | 102 | – | Fc1ccccc1Nc1nc(Nc2ccccc2F)nc(Nc2ccccc2F)n1
19 | inactive | 101 | – | FC(F)(F)Oc1cccc(Nc2cnc(Nc3cccc(OC(F)(F)F)c3)cn2)c1
20 | inactive | 103 | – | COc1cccc(Nc2nc(Nc3cccc(OC)c3)nc(Nc3cccc(OC)c3)n2)c1
21 | inactive | 106 | – | Fc1cccc(Nc2nccnc2Nc2cccc(F)c2)c1
22 | – | 101 | – | COc1cccc(Nc2nccnc2Nc2cccc(OC)c2)c1
23 | inactive | 100 | – | FC(F)(F)c1ccc(Nc2nc(Nc3ccc(C(F)(F)F)cc3)nc(Nc3ccc(C(F)(F)F)cc3)n2)cc1
24 | inactive | 103 | – | COc1ccccc1Nc1nc(Nc2ccccc2OC)nc(Nc2ccccc2OC)n1
25 | – | 343 | 4.92 | FC(F)(F)Oc1cccc(Nc2nccnc2Nc2cccc(OC(F)(F)F)c2)c1
26 | inactive | 103 | – | FC(F)(F)c1cccc(Nc2nc(Nc3cccc(C(F)(F)F)c3)nc(Nc3cccc(C(F)(F)F)c3)n2)c1
27 | inactive | 104 | – | COc1ccc(Nc2nc(Nc3ccc(OC)cc3)nc(Nc3ccc(OC)cc3)n2)cc1
28 | inactive | 140 | – | FC(F)(F)c1cccc(Nc2cnc(Nc3cccc(C(F)(F)F)c3)cn2)c1
29 | – | 102 | – | COc1ccccc1Nc1nccnc1Nc1ccccc1OC
